We go through 4 compounds from patent publication EP4678643A1, “KRAS INHIBITOR COMPOUND, PHARMACEUTICAL COMPOSITION THEREOF, AND USE THEREOF” (Sunshine Lake Pharma Co., Ltd., priority 2023, dated 2024).

Like-named read-outs stand apart in the source and are kept apart here.

For data set [1], the target named is KRAS G12D-GTP & SOS1 (Homo sapiens, UniProt P01116, G12D). In words: KRAS G12D/SOS1 Binding Assay (HTRF). As to conditions: competitive binding, 665/615 nm ratio. From the text:
3. KRAS G12D/SOS1 Binding Assay
In general terms: Time-resolved FRET reads energy transfer from a long-lived donor to a nearby acceptor.

The test system of data set [2] is pERK in HPAC cells (KRAS p.G12D). Kind of data set: Inhibitory effect on intracellular pERK by In-Cell Western assay, HPAC. Type of data set: cell-based. As to conditions: Homo sapiens, pERK inhibition, compound incubation 1 h, read-out: HPAC, IC50 (nM) KRASp.G12D. As for the experimental part: (§1) 1. Determination of Inhibitory Effect on Intracellular pERK by In-Cell Western Assay
(§2) (1) On the first day, the following cells were revived and cultured with the corresponding culture medium and incubated at 37 °C, 5% CO2 until confluence.
(§3) (2) On the third day, the culture medium was removed, the cells were rinsed once with DPBS, 2 mL of TrypLE™ trypsin was added for digestion, and the cells were placed at room temperature until the cells detached. (3) 5 mL fresh culture medium was added to resuspend cells to terminate the digestion, and the cells were gently pipetted and centrifuged at 1000 rpm for 5 minutes at room temperature. (4) The supernatant was removed, and 5 mL fresh culture medium was added to resuspend the cells and count cells. (5) The cells were plated in a 384-well plate with appropriate cell concentration by adjusting with complete culture medium and incubated at 37 °C, 5% CO2 for overnight. (6) 200 nL of the prepared serial dilution compound (DMSO final concentration was 0.5%) was added and incubated at 37 °C, CO2 for 3 h (HPAC cell lines for 1 h). (7) The cells were fixed. (8) The cells were washed twice with PBS. (9) The blocking solution was added and the cells were incubated at room temperature for 1 h. (10) The blocking solution was removed, and the primary antibody (phospho-ERK Rabbit mAb + GAPDH (D4C6R) Mouse mAb) was added and the cells were incubated at 4 °C for overnight. (11) The cells were washed twice with PBST (PBS + 0.05% Tween 20) for 2 minutes each time. (12) PBST was removed and secondary antibody (IRDye 800CW Goat anti-Rabbit IgG (H+L) + IRDye 680RD Goat anti Mouse IgG (H+L)) was added and incubated away from light at room temperature. (14) Secondary antibody was discarded and the cell was washed twice with PBST, 2 minutes each time. (15) 384-well plate was inverted and centrifuged at 1000 rpm at room temperature for 1 minute, and the 384-well plate was scanned with Odyssey CLx. (16) Data analysis: • a) Assay stability check was peformed by using DMSO and reference control data: [formula] […]

In data set [3] the test system is pERK in AGS cells (KRAS G12D). In words: Inhibitory effect on intracellular pERK by In-Cell Western assay, AGS. Type of data set: cell-based. Conditions: pERK inhibition, compound incubation 3 h, read-out: AGS, IC50 (nM) KRAS p.G12D. As to the method:
as §1, §2
(2) On the third day, the culture medium was removed, the cells were rinsed once with DPBS, 2 mL of TrypLE™ trypsin was added for digestion, and the cells were placed at room temperature until the cells detached. (3) 5 mL fresh culture medium was added to resuspend cells to terminate the digestion, and the cells were gently pipetted and centrifuged at 1000 rpm for 5 minutes at room temperature. (4) The supernatant was removed, and 5 mL fresh culture medium was added to resuspend the cells and count cells. (5) The cells were plated in a 384-well plate with appropriate cell concentration by adjusting with complete culture medium and incubated at 37 °C, 5% CO2 for overnight. (6) 200 nL of the prepared serial dilution compound (DMSO final concentration was 0.5%) was added and incubated at 37 °C, CO2 for 3 h (HPAC cell lines for 1 h). (7) The cells were fixed. (8) The cells were washed twice with PBS. (9) The blocking solution was added and the cells were incubated at room temperature for 1 h. (10) The blocking solution was removed, and the primary antibody (phospho-ERK Rabbit mAb + GAPDH (D4C6R) Mouse mAb) was added and the cells were incubated at 4 °C for overnight. (11) The cells were washed twice with PBST (PBS + 0.05% Tween 20) for 2 minutes each time. (12) PBST was removed and secondary antibody (IRDye 800CW Goat anti-Rabbit IgG (H+L) + IRDye 680RD Goat anti Mouse IgG (H+L)) was added and incubated away from light at room temperature. (14) Secondary antibody was discarded and the cell was washed twice with PBST, 2 minutes each time. (15) 384-well plate was inverted and centrifuged at 1000 rpm at room temperature for 1 minute, and the 384-well plate was scanned with Odyssey CLx.

The test system of data set [4] is pERK in NCI-H727 cells (KRAS p.G12V). In words: Inhibitory effect on intracellular pERK by In-Cell Western assay, NCI-H727. As to conditions: Homo sapiens, pERK inhibition, compound incubation 3 h. Type of data set: cell-based. As for the experimental part: as §1, §2, §3
For data set [5], the system named is pERK in HCT 116 cells (KRAS p.G13D). In words: Inhibitory effect on intracellular pERK by In-Cell Western assay, HCT 116. Conditions: Homo sapiens, pERK inhibition, compound incubation 3 h. Type of data set: cell-based. As for the experimental part: as §1, §2
(§4) (2) On the third day, the culture medium was removed, the cells were rinsed once with DPBS, 2 mL of TrypLE™ trypsin was added for digestion, and the cells were placed at room temperature until the cells detached. (3) 5 mL fresh culture medium was added to resuspend cells to terminate the digestion, and the cells were gently pipetted and centrifuged at 1000 rpm for 5 minutes at room temperature. (4) The supernatant was removed, and 5 mL fresh culture medium was added to resuspend the cells and count cells. (5) The cells were plated in a 384-well plate with appropriate cell concentration by adjusting with complete culture medium and incubated at 37 °C, 5% CO2 for overnight. (6) 200 nL of the prepared serial dilution compound (DMSO final concentration was 0.5%) was added and incubated at 37 °C, CO2 for 3 h (HPAC cell lines for 1 h). (7) The cells were fixed. (8) The cells were washed twice with PBS. (9) The blocking solution was added and the cells were incubated at room temperature for 1 h. (10) The blocking solution was removed, and the primary antibody (phospho-ERK Rabbit mAb + GAPDH (D4C6R) Mouse mAb) was added and the cells were incubated at 4 °C for overnight. (11) The cells were washed twice with PBST (PBS + 0.05% Tween 20) for 2 minutes each time. (12) PBST was removed and secondary antibody (IRDye 800CW Goat anti-Rabbit IgG (H+L) + IRDye 680RD Goat anti Mouse IgG (H+L)) was added and incubated away from light at room temperature. (14) Secondary antibody was discarded and the cell was washed twice with PBST, 2 minutes each time. (15) 384-well plate was inverted and centrifuged at 1000 rpm at room temperature for 1 minute, and the 384-well plate was scanned with Odyssey CLx. (16) Data analysis: • a) Assay stability check was peformed by using DMSO and reference control data: [formula] [formula] • b) nonlinear fitting of Compound IC50: Y = Bottom + (Top−Bottom)/(1+10^(∧)((LogIC50−X)×HillSlope)). [formula]

In data set [6] the test system is pERK in A549 cells (KRAS p.G12S). Kind of data set: Inhibitory effect on intracellular pERK by In-Cell Western assay, A549. Type of data set: cell-based. As to conditions: Homo sapiens, pERK inhibition, compound incubation 3 h. As for the experimental part: as §1, §2, §4
The conditions of data set [7]: mouse, in vivo.
Description: (§5) Pharmacokinetic evaluation of the compounds of the present invention by intravenous injection or oral gavage in mice
(§6) The inventors conducted a pharmacokinetic evaluation of the compounds of this invention in mice.
(§7) The compounds of the present invention were administered to test animals in the form of a solution of 5% DMSO + 30% PEG400 + 65% saline, 10% DMSO + 10% Kolliphor HS15 + 80% Saline, 10% DMSO + 89% (25% SBE-B-CD) + (2% HCl), 20% PEG400 + 80% sterile water for injection, or 10% DMA + 10% HS15 + 30% PEG400 + 50% sterile water for injection. The animals were fasted for 12 hours before administration and had free access to water. For the intravenous administration group, the dose was 2 mg/kg/day, qd. Venous blood samples (approximately 0.15 mL) were collected at the following time points after administration: 0.083, 0.25, 0.5, 1.0, 2.0, 5.0, 7.0 and 24 hours. EDTA-K2 was pre-added to the blood collection tube as an anticoagulant. Blood samples were centrifuged at 12,000 rpm for 2 minutes, and plasma was collected and stored at -20°C or -70°C. For the intravenous administration group, the dose was 5 mg/kg/day, qd. Venous blood samples (approximately 0.15 mL) were collected at the following time points after administration: 0.25, 0.5, 1.0, 2.0, 5.0, 7.0 and 24 hours. EDTA-K2 was pre-added to the blood collection tube as an anticoagulant. Blood samples were centrifuged at 12,000 rpm for 2 minutes, and plasma was collected and stored at -20°C or -70°C.
(§8) The collected plasma samples were processed (frozen plasma was thawed at room temperature and vortexed for 15 seconds. 10-20 µL of plasma was added to 120-150 µL of acetonitrile solution containing the internal standard and vortexed for 5 minutes. The sample was centrifuged at 4,000 rpm for 5 minutes. 100 µL of the supernatant was added to 120-150 µL of methanol/water (v/v = 1/1) and mixed). The concentrations of the compounds in the plasma were analyzed by LC-MS/MS.
The test system of data set [8] is pERK in MKN1 cells (KRAS WTdep). In words: Inhibitory effect on intracellular pERK by In-Cell Western assay, MKN1. Type of data set: cell-based. Conditions: Homo sapiens, MKN-1, pERK inhibition, compound incubation 3 h. As to the method:
as §1, §2, §4

Data set [9] deals with KRAS G12D-GTP & cRAF (Homo sapiens, UniProt P01116, G12D). In words: KRAS G12D/cRAF Binding Assay (HTRF). Conditions: competitive binding, 665/615 nm ratio. The source says:
2. KRAS G12D/cRAF Binding Assay

Data set [10] has as its system pERK in H358 cells (KRAS p.G12C). Kind of data set: Inhibitory effect on intracellular pERK by In-Cell Western assay, H358. Conditions: Homo sapiens, NCI-H358, pERK inhibition, compound incubation 3 h. Type of data set: cell-based. As for the experimental part:
as §1, §2, §4

Data set [11] in a line: in vivo. Conditions: mouse.
Description: as §5, §6, §7, §8

Chain of KRAS G12D-GTP & SOS1 (P01116 1-188 isoform P01116-2 G12D): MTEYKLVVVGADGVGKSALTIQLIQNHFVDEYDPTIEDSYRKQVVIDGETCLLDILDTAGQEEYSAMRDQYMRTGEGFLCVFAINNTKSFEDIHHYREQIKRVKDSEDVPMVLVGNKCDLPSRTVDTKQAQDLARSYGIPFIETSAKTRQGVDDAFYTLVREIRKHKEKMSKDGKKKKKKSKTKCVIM
Chain of KRAS G12D-GTP & cRAF (P01116 1-188 isoform P01116-2 G12D): as above

As usually defined, the IC50 is the concentration that gives 50% inhibition. Consider `C#Cc1c(F)ccc2cc(O)cc(-c3nc(C#CC)c4c(N5CCCOCC5)nc(OCC56CCCN5CC(F)C6)nc4c3F)c12` (stereo not shown) [Compound 1], for which the IC50 in data set [1] came to 16.3 nM; in data set [2], 0.3 nM; in [3], 0.2 nM; in data set [4], 1 nM; in data set [5], 2.1 nM; in data set [6], 0.6 nM. Further, the values for the IC50 in data set [8], in [9] and in [10] were 1.9 nM, 7.9 nM and 0.4 nM, respectively. For the same compound, in data set [7], the “pharmacokinetic properties in mice” value is recorded as “good pharmacokinetic properties”.
On to `CC#Cc1nc(-c2cc(O)cc3ccc(F)c(CC)c23)c(F)c2nc(OCC34CCCN3CC(F)C4)nc(N3CCCOCC3)c12` (stereo not shown) [Compound 2], for which the IC50 in data set [1] was 20.8 nM; in data set [2] it was 1.6 nM; in data set [3] (Homo sapiens, AGS, 3 h) it was 2.2 nM; in data set [4] it was 4.8 nM; in data set [8], 6.4 nM; in data set [9], 13.7 nM. Further, 2 nM corresponded to half-maximal inhibition in data set [10] (IC50).
Consider `C#Cc1c(F)ccc2cc(O)cc(-c3nc(C#CCC)c4c(N5CCCOCC5)nc(OCC56CCCN5CC(F)C6)nc4c3F)c12` (stereo not shown) [Compound 3], for which the IC50 was 14.8 nM in [1]; 0.6 nM in data set [2]; 0.5 nM in [3] (Homo sapiens, AGS, 3 h); 2.2 nM in data set [4]; 3.7 nM in data set [8]; 7.4 nM in [9]. Besides, in data set [10], half-maximal inhibition (IC50) was put at 0.7 nM.
Usually AUC(0-inf) stands for total exposure, with the tail of the curve extrapolated. Low readings indicate low exposure, high ones high exposure. In general, AUC(0-t) refers to the area under the concentration-time curve up to a stated or last time point. Lower therefore signals low exposure. One may read the Cmax as the highest concentration seen after dosing. What is called MRT last is a mean duration of stay, worked out from the concentration-time curve. In general, Tmax refers to the time at which the peak concentration occurs. Broadly, the Vd is the apparent volume that relates the amount in the body to the concentration in plasma or blood. In general, clearance refers to a measure of how efficiently the substance is removed, as volume per time. Lower therefore signals a low capacity for elimination. For orientation: half-life means how long it takes for the measured level to halve. Low values mean rapid decline, high ones slow decline. For the compound `C#Cc1c(F)ccc2cc(O)cc(-c3nc(C#CCC)c4c(N5CCCCC(F)C5)nc(OC[C@@]56CCCN5C[C@H](F)C6)nc4c3F)c12` (stereo partly shown) [Compound 26], in data set [3] (Homo sapiens, AGS, 3 h), the IC50 worked out at 3.2 nM. The same compound yielded a concentration for half-maximal inhibition (IC50) in data set [5] of 47.3 nM. In data set [6], this compound had an IC50 of 15.1 nM. Also, in data set [8], the IC50 is 21.5 nM. In data set [11] (iv, 2 mg/kg/day), this compound yielded a total exposure AUC(0-inf) of 8110 ng·h/mL, an AUC(0-t) of 8050 ng·h/mL, a Cmax of 8280 ng/mL and an MRT last of 1.2 h. Further, in data set [11] (iv, 2 mg/kg/day), the Tmax worked out at 0.083 h, the Vd came out at 0.3 L/kg, the clearance was 4.1 mL/min/kg and the half-life is 1 h. For the same compound, in data set [11] (po, 5 mg/kg/day), the area under the curve AUC(0-inf) came out at 4240 ng·h/mL, the AUC(0-t) is 4120 ng·h/mL, the highest concentration (Cmax) is 1630 ng/mL and the MRT last was found to be 1.8 h. Moreover, in data set [11] (po, 5 mg/kg/day), the Tmax amounted to 0.5 h and the half-life is 1.3 h. In data set [10], the IC50 stood at 3.9 nM.
